In patent US20240262806A1, “INHIBITORS OF NLRP3” (PTC THERAPEUTICS, INC., priority 2021, published 2024):

system: NLRP3 inflammasome; assay: IL-1β Secretion Assay (NLRP3-dependent IL-1β secretion in PMA-differentiated THP-1 cells, nigericin activation, HTRF); assay type: cell-based; details: Homo sapiens, THP-1, THP-1 cells, 100 ng/mL PMA 24 h, compound 20 h, 2.5 μM Nigericin 3 h; read-out: IC50 IL-1β Inhibition
Outline: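 IL-1β release, quantified by HTRF after nigericin activation of the NLRP3 inflammasome, was the read-out. A logistic fit of percent inhibition gave IC50.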

CC(C)(O)CN1CCC[C@@H](Nc2nnc(-c3ccc(C(F)(F)F)cc3O)c3ccncc23)C1 [Compound I-286] and Oc1cc(C(F)(F)F)ccc1-c1nnc(N[C@@H]2CCCN(CCCF)C2)c2cnccc12 [Compound I-294] cannot be ordered by IC50: less than 1 nM for the first, less than 1 nM for the second.

First: COc1ccc(-c2nnc(N[C@@H]3CCCN(C)C3)c3cnccc23)c(C(F)F)c1 [Compound I-287]
Second: Cc1ccc(-c2nnc(N[C@@H]3CCCN(C)C3)c3cnccc23)c(C(F)F)c1 [Compound I-299]
The IC50 of the first is higher: 1 to 10 nM for the first, less than 1 nM for the second.

Oc1cc(C(F)(F)F)ccc1-c1nnc(NC2CCCCC2)c2cnccc12 [Compound I-288] and Oc1cc(C(F)(F)F)ccc1-c1nnc(N[C@@H]2CCCOC2)c2cnccc12 [Compound I-309] fall in the same range of IC50: 1 to 10 nM for the first, 1 to 10 nM for the second.

CN1CCC[C@@H](Nc2nnc(-c3ccc(Cl)cc3C(F)(F)F)c3ccncc23)C1 [Compound I-289] and Cc1ccc(-c2nnc(N[C@@H]3CCCN(C)C3)c3cnccc23)c(C(F)(F)F)c1 [Compound I-298] fall in the same range of IC50: 1 to 10 nM for the first, 1 to 10 nM for the second.

Cc1cc(C(F)(F)F)ccc1-c1nnc(N[C@@H]2CCCN(C)C2)c2cnccc12 [Compound I-290] and CC(C)Oc1cc(C(F)(F)F)ccc1-c1nnc(N[C@@H]2CCCN(C)C2)c2cnccc12 [Compound I-291] fall in the same range of IC50: 1 to 10 nM for the first, 1 to 10 nM for the second.

CN(c1nnc(-c2ccc(C(F)(F)F)cc2O)c2ccncc12)[C@@H]1CCCNC1 [Compound I-292, (R)-2-(4-(Methyl(piperidin-3-yl)amino)pyrido[3,4-d]pyridazin-1-yl)-5-(trifluoromethyl)phenol] and Oc1cc(C(F)(F)F)ccc1-c1nnc(N[C@H]2CNCC[C@H]2F)c2cnccc12 [Compound I-301] fall in the same range of IC50: 1 to 10 nM for the first, 1 to 10 nM for the second.

Compared with Oc1cc(C(F)(F)F)ccc1-c1nnc(N[C@@H]2CCCN(CCOC(F)F)C2)c2cnccc12 [Compound I-293], OCCN1CCCC[C@@H](Nc2nnc(-c3ccc(C(F)(F)F)cc3O)c3ccncc23)C1 [Compound I-317] is higher in IC50: less than 1 nM for the first, 1 to 10 nM for the second.

First: CC(C)N1CCC[C@@H](Nc2nnc(-c3ccc(C(F)(F)F)cc3O)c3ccncc23)C1 [Compound I-295]
Second: Oc1cc(C(F)(F)F)ccc1-c1nnc(N[C@H]2CCCOC2)c2cnccc12 [Compound I-310]
The IC50 of the first is lower: less than 1 nM for the first, 1 to 10 nM for the second. The first is the more potent here.

COc1ccc(-c2nnc(N[C@H]3CCCN(C)C3)c3cnccc23)c(C(C)C)c1 [Compound I-296] and CN1CCC[C@@H](Nc2nnc(-c3ccc(OC(F)(F)F)cc3C(F)F)c3ccncc23)C1 [Compound I-319] fall in the same range of IC50: 1 to 10 nM for the first, 1 to 10 nM for the second.

[2H]C1(N2CCC[C@@H](Nc3nnc(-c4ccc(C(F)(F)F)cc4O)c4ccncc34)C2)CCC1 [Compound I-300] and FC(F)Oc1cc(C(F)(F)F)ccc1-c1nnc(N[C@@H]2CCCN(C3CCC3)C2)c2cnccc12 [Compound I-312] cannot be ordered by IC50: less than 1 nM for the first, less than 1 nM for the second.

CN1CCC(CNc2nnc(-c3ccc(C(F)(F)F)cc3O)c3ccncc23)CC1 [Compound I-302] and OCCN1CCC(CNc2nnc(-c3ccc(C(F)(F)F)cc3O)c3ccncc23)CC1 [Compound I-303] fall in the same range of IC50: 1 to 10 nM for the first, 1 to 10 nM for the second.

First: Cc1cc(O)c(-c2nnc(N[C@@H]3CCCN(C)C3)c3ncccc23)c(F)c1 [Compound I-304]
Second: Cc1cc(O)c(-c2nnc(N[C@@H]3CCCN(C)C3)n3cccc23)c(F)c1 [Compound I-342, 3-Fluoro-5-methyl-2-[4-[[(3R)-1-methyl-3-piperidyl]amino]pyrrolo[1,2-d][1,2,4]triazin-1-yl]phenol]
The IC50 of the first is lower: less than 1 nM for the first, 1 to 10 nM for the second. The first is the more potent here.

First: C[C@]1(O)C[C@@H](Nc2nnc(-c3ccc(C(F)(F)F)cc3O)c3ccncc23)C1 [Compound I-305]
Second: C[C@]1(O)C[C@H](Nc2nnc(-c3ccc(C(F)(F)F)cc3O)c3ccncc23)C1 [Compound I-316]
The IC50 of the first is lower: less than 1 nM for the first, 1 to 10 nM for the second.

Oc1cc(C(F)(F)F)ccc1-c1nnc(N[C@H]2CNC[C@H](F)C2)c2cnccc12 [Compound I-306] and CN1CC[C@@H](F)[C@@H](Nc2nnc(-c3ccc(C(F)(F)F)cc3O)c3ccncc23)C1 [Compound I-315] cannot be ordered by IC50: less than 1 nM for the first, less than 1 nM for the second.

First: CCc1ccc(-c2nnc(N[C@@H]3CCCN(C)C3)c3cnccc23)c(O)c1 [Compound I-307]
Second: CN1CCC[C@@H](Nc2nnc(-c3cc(OC(F)(F)F)ccc3C(F)F)c3ccncc23)C1 [Compound I-320]
The IC50 of the first is lower: less than 1 nM for the first, 1 to 10 nM for the second. The first is the more potent here.

CO[C@H]1CCC[C@@H](Nc2nnc(-c3ccc(C(F)(F)F)cc3O)c3ccncc23)C1 [Compound I-308] and CCOC(=O)[C@@H]1CC[C@@H](Nc2nnc(-c3ccc(C(F)(F)F)cc3O)c3ccncc23)CN1C [Compound I-318, Ethyl (2S,5R)-5-((1-(2-hydroxy-4-(trifluoromethyl)phenyl)pyrido[3,4-d]pyridazin-4-yl)amino)-1-methylpiperidine-2-carboxylate] cannot be ordered by IC50: less than 1 nM for the first, less than 1 nM for the second.

FC(F)Oc1cc(C(F)(F)F)ccc1-c1nnc(N[C@@H]2CCCNC2)c2cnccc12 [Compound I-311] and FC(F)Oc1cc(C(F)(F)F)ccc1-c1nnc(N[C@@H]2CCCCCNC2)n2cccc12 [Compound I-324, 1-[2-(difluoromethoxy)-4-(trifluoromethyl)phenyl]-N-[(3R)-azocan-3-yl]pyrrolo[1,2-d][1,2,4]triazin-4-amine] fall in the same range of IC50: 1 to 10 nM for the first, 1 to 10 nM for the second.

Compared with CN1CCC[C@@H](Nc2nnc(-c3ccc(C(F)(F)F)cc3O)c3ccoc23)C1 [Compound I-313, (R)-2-(7-((1-Methylpiperidin-3-yl)amino)furo[2,3-d]pyridazin-4-yl)-5-(trifluoromethyl)phenol], Cc1ccn2c(N[C@@H]3CCCN(C)C3)nnc(-c3ccc(C(F)(F)F)cc3O)c12 [Compound I-321, (R)-2-(8-Methyl-4-((1-methylpiperidin-3-yl)amino)pyrrolo[1,2-d][1,2,4]triazin-1-yl)-5-(trifluoromethyl)phenol] is higher in IC50: less than 1 nM for the first, 10 to 100 nM for the second. The first is the more potent here.

CN1CCC[C@@H](Nc2nnc(-c3ccc(Cl)cc3O)c3c2CCC3)C1 [Compound I-314] and Cc1cc2c(-c3ccc(C4CC4)cc3O)nnc(N[C@@H]3CCCN(C)C3)n2n1 [Compound I-327] fall in the same range of IC50: 1 to 10 nM for the first, 1 to 10 nM for the second.

CN1CCC[C@@H](Nc2nnc(-c3ccc(C(F)(F)F)cc3OC(F)F)c3cccn23)C1 [Compound I-322, 1-[2-(Difluoromethoxy)-4-(trifluoromethyl)phenyl]-N-[(3R)-1-methyl-3-piperidyl]pyrrolo[1,2-d][1,2,4]triazin-4-amine] and CCN1CCC[C@@H](Nc2nnc(-c3ccc(C(F)(F)F)cc3OC(F)F)c3cccn23)C1 [Compound I-335] cannot be ordered by IC50: less than 1 nM for the first, less than 1 nM for the second.

FC(F)OCCN1CCC[C@@H](Nc2nnc(-c3ccc(C(F)(F)F)cc3OC(F)F)c3cccn23)C1 [Compound I-323, 1-[2-(difluoromethoxy)-4-(trifluoromethyl)phenyl]-N-[(3R)-1-[2-(difluoromethoxy)ethyl]-3-piperidyl]pyrrolo[1,2-d][1,2,4]triazin-4-amine] and OCCN1CCC[C@@H](Nc2nnc(-c3ccc(C(F)(F)F)cc3OC(F)F)c3cccn23)C1 [Compound I-325, 2-[(3R)-3-[[1-[2-(Difluoromethoxy)-4-(trifluoromethyl)phenyl]pyrrolo[1,2-d][1,2,4]triazin-4-yl]amino]-1-piperidyl]ethanol] fall in the same range of IC50: 1 to 10 nM for the first, 1 to 10 nM for the second.

Compared with FC(F)Oc1cc(C(F)(F)F)ccc1-c1nnc(N[C@@H]2CCCN(C3CCOCC3)C2)n2cccc12 [Compound I-326], Oc1cc(C(F)(F)F)ccc1-c1nnc(N[C@@H]2CCCN(C3CCOCC3)C2)n2cccc12 [Compound I-343] is higher in IC50: less than 1 nM for the first, 1 to 10 nM for the second.

First: Cc1cc2c(-c3ccc(C(F)(F)F)cc3O)nnc(N[C@@H]3CCCN(C)C3)n2n1 [Compound I-329, (R)-2-(2-methyl-7-((1-methylpiperidin-3-yl)amino)pyrazolo[1,5-d][1,2,4]triazin-4-yl)-5-(trifluoromethyl)phenol]
Second: CN1CCC[C@@H](Nc2nnc(-c3ccc(C(F)(F)F)cc3O)c3cc(C4CC4)nn23)C1 [Compound I-345]
The IC50 of the first is lower: less than 1 nM for the first, 1 to 10 nM for the second. The first is the more potent here.

Cc1cc2c(-c3ccc(C(F)(F)F)cc3OC(F)F)nnc(N[C@@H]3CCCN(C)C3)n2n1 [Compound I-330] and CN1CCC[C@@H](Nc2nnc(-c3ccc(C(F)(F)F)cc3OC(F)F)c3cc(C4CC4)nn23)C1 [Compound I-346] fall in the same range of IC50: 1 to 10 nM for the first, 1 to 10 nM for the second.

Cc1cc2c(N[C@@H]3CCCNC3)nnc(-c3ccc(C(F)(F)F)cc3O)n2n1 [Compound I-332] and Cc1cc2c(N[C@@H]3CCCN(C)C3)nnc(-c3ccc(C(F)(F)F)cc3O)n2n1 [Compound I-336] fall in the same range of IC50: 10 to 100 nM for the first, 10 to 100 nM for the second.

First: CN1CCC[C@@H](Nc2nnc(-c3ccc(C(F)(F)F)cc3O)c3cncn23)C1 [Compound I-333, 2-[4-[[(3R)-1-Methyl-3-piperidyl]amino]imidazo[1,5-d][1,2,4]triazin-1-yl]-5-(trifluoromethyl)phenol]
Second: CN1CCC[C@@H](Nc2nnc(-c3ccc(C(F)(F)F)cc3C(F)(F)F)c3cccn23)C1 [Compound I-348]
The IC50 of the first is lower: less than 1 nM for the first, 1 to 10 nM for the second. The first is the more potent here.

First: Cc1cc2c(-c3ccc(Br)cc3O)nnc(N[C@@H]3CCCN(C)C3)n2n1 [Compound I-334]
Second: COc1ccc(-c2nnc(N[C@@H]3CCCN(C)C3)n3nc(C4CC4)cc23)c(O)c1 [Compound I-347]
The IC50 of the first is lower: less than 1 nM for the first, 10 to 100 nM for the second. The first is the more potent here.

Cc1ccc(-c2nnc(N[C@@H]3CCCN(C)C3)n3cccc23)c(O)c1 [Compound I-337] and Cc1cc(O)c(-c2nnc(N[C@@H]3CCCN(CCO)C3)n3cccc23)c(F)c1 [Compound I-341] fall in the same range of IC50: 1 to 10 nM for the first, 1 to 10 nM for the second.

Compared with Cc1cc2c(N[C@@H]3CCCN(CCO)C3)nnc(-c3ccc(C(F)(F)F)cc3O)n2n1 [Compound I-338], COc1ccc(-c2nnc(N[C@@H]3CCCNC3)c3cc(C)nn23)c(O)c1 [Compound I-339] is higher in IC50: 10 to 100 nM for the first, 100 to 300 nM for the second.

First: Oc1cc(C2CC2)ccc1-c1nnc(N[C@@H]2CCCN(C3CCOCC3)C2)n2cccc12 [Compound I-340]
Second: Cc1cc(O)c(-c2nnc(N[C@@H]3CCCN(CCOC(F)F)C3)n3cccc23)c(F)c1 [Compound I-344]
The IC50 of the first is higher: 1 to 10 nM for the first, less than 1 nM for the second. The second is the more potent here.
